Tested on: S100A4 mRNA
Assay: S100A4 mRNA expression by qRT-PCR in colon cancer cells
Format: cell-based, human
Procedure: Total RNA was isolated from 4×10^5 cells plated in a 6-well-plates 24 hour before cells were lyzed with Trizol Reagent (Invitrogen). RNA was extracted with Trizol RNA extraction reagent (Invitrogen) according to the manufacturer's instructions. Quantification of the RNA concentration was performed with Nanodrop (Peqlab) and 50 ng total RNA was reverse transcribed with random hexamers in 10 mM MgCl2; 1× RT-buffer, 250 μM pooled dNTPs, 1 U per μL RNAse inhibitor and 2.5 U per μL MuLV reverse transcriptase (all Applied Biosystems). Reaction occurred at 42° C. for 15 minutes, 99° C. for 5 minutes and subsequent cooling at 5° C. for 5 minutes. The cDNA product was amplified in a total volume of 10 μL in 96-well-plates in the LightCycler 480 (Roche) using the following conditions: 95° C., 10 minutes, followed by 45 cycles of 95° C. for 10 seconds, 61° C. for 30 seconds and 72° C. for 4 seconds. For S100A4 cDNA quantification the following primer and probes were used: forward primer 5′-CTCAGCGCTTCTTCTTTC-3′, reverse primer 5′-GGGTCAGCAGCTCCTTTA-3′, fluorescein isothiocyanate probe 5′-[…]-3′, LCRed640-probe 5′-[…]-3′. For cDNA quantification of the housekeeping gene glucose-6-phosphate dehydrogenase (G6PD) the hG6PDH Roche Kit (Roche Diagnostics, Mannheim, Germany) was used according to manufacturers instructions. Data analysis was performed with LightCycler® 480 Software release 1.5.0 SP3. For each qRT-PCR reaction a mean of the duplicate was calculated. Each mean value of the expressed gene was normalized to the respective mean amount of the G6PD cDNA.
(A) Determination of the cytotoxicity of niclosamide on HCT116 cells. Cells were treated with increasing concentrations of niclosamide for 24 hours and cell viability was measured. (B) Effect of increasing concentrations of niclosamide on S100A4 expression. HCT116 cells were treated with increasing concentrations of niclosamide for 24 hours. S100A4 expression was determined by quantitative reverse-transcription-polymerase chain reaction (qRT-PCR) and immunoblot. (C) Time-dependency of niclosamide effect on S100A4 expression. HCT116 cells were treated with a single dose of 1 μM niclosamide for 24 hours and S100A4 expression was analyzed by qRT-PCR and immunoblot at indicated time points. Black bar indicates the chosen treatment conditions for further experiments. (D) Effect of daily doses of niclosamide on S100A4 expression. HCT116 cells were treated daily with 1 μM niclosamide and S100A4 expression was analyzed by qRT-PCR and immunoblot. Data is given as mean±SD (n>2). Differences in treated groups were compared with the control group by two-sided one-way analysis of variances and Bonferroni post hoc multiple comparison test.
(E) Effect of niclosamide in HCT116-vector and HCT116-S100A4 cells. HCT116-vector and HCT116-S100A4 cells were treated with 1 μM niclosamide for 24 hours and S100A4 expression was analyzed by qRT-PCR and immunoblot. Data is given as mean±SD (n>2). Comparison of niclosamide vs. solvent-treated cells was analyzed with Student's t test.
(A) S100A4 expression under niclosamide treatment. Cells were treated with 1 μM niclosamide for 24 hours. S100A4 expression was analyzed with qRT-PCR and immunoblot. (B) Cell migration under niclosamide treatment. Migration rates of cells treated with 1 μM niclosamide for 24 hours were determined in a Boyden chamber assay values were normalized to solvent-treated SW620 cells. (C) Cell invasion under niclosamide treatment. Cells were seeded onto Matrigel covered transwells and treated with 1 μM niclosamide for 24 hours. Invaded cells in the lower chamber were counted and normalized to solvent-treated SW620 cells. Differences in solvent vs. niclosamide-treated cells were analyzed by Student's t test. Data represent mean±SE of at least two independent experiments each performed in triplicate. (D) Directed migration under niclosamide treatment. Wounds of 300 μM width were set in a 60% confluent monolayer of cells on day 1. […]

O=C(Nc1ccc([N+](=O)[O-])cc1Cl)c1cc(Cl)ccc1O [niclosamide, 2′,5-dichloro-4′-nitrosalicylanilide]
S100A4 mRNA (DLD-1, 1 μM, 24 h, mRNA barely detectable): remained unchanged
S100A4 mRNA expression, mean difference control vs niclosamide (HAB-68mut, 1 μM, 24 h): 0.55
S100A4 mRNA expression, mean (relative to HCT116 control) (HAB-68mut, 1 μM, 24 h, control 1.17): 0.62
S100A4 mRNA expression, mean (relative to HCT116 control) (HAB-92 wt, 1 μM, 24 h, control 0.03, statistically not significant): 0.01
S100A4 mRNA expression, mean difference control vs niclosamide (HAB-92 wt, 1 μM, 24 h, statistically not significant): 0.02
S100A4 mRNA, mean % (HCT116, 1 μM daily for 3 days, 24 hours post-treatment, control 101.9%): 58.0%
S100A4 mRNA, mean % (HCT116, 1 μM daily for 3 days, 48 hours post-treatment, control 98.1%): 44.4%
S100A4 mRNA, mean % (HCT116, 1 μM daily for 3 days, 72 hours post-treatment, control 100.0%): 57.9%
S100A4 mRNA, mean % of solvent-treated control (HCT116, 1 μM daily, 24 hours): 46.0%
S100A4 mRNA, mean % of solvent-treated control (HCT116, 1 μM daily, 48 hours): 44.5%
S100A4 mRNA, mean % of solvent-treated control (HCT116, 1 μM daily, 72 hours): 59.5%
S100A4 mRNA expression, mean difference control vs niclosamide (HCT116, 1 μM, 24 h (relative scale)): 0.54
S100A4 mRNA expression, mean (relative to HCT116 control) (HCT116, 1 μM, 24 h, control 1.00): 0.46
S100A4 mRNA, mean % of solvent-treated control (HCT116, 1 μM, single dose, 18 hours): 47.5%
S100A4 mRNA, mean % of solvent-treated control (HCT116, 1 μM, single dose, 24 h): 47.4%
S100A4 mRNA and protein levels (HCT116, 1 μM, single dose, after 30-48 hours): returned to the control level
S100A4 mRNA, mean % of solvent-treated control (HCT116, 1.5 μM, 24 h): 39.2%
S100A4 mRNA, mean % of solvent-treated control (HCT116, 2 μM, 24 h): 39.1%
S100A4 mRNA, mean % of solvent-treated control (HCT116, 2.5 μM, 24 h): 36.7%
S100A4 mRNA, mean difference control vs niclosamide (HCT116, 24 hours post-treatment): 43.9%
S100A4 mRNA, mean difference control vs niclosamide (HCT116, 48 hours post-treatment): 53.7%
S100A4 mRNA, mean difference control vs niclosamide (HCT116, 72 hours post-treatment): 42.1%
change in S100A4 expression (HCT116, concentrations below 1 μM, 24 h): No change
S100A4 mRNA, mean difference control vs niclosamide (HCT116-S100A4, 1 μM, 24 h, not statistically significant): 104.7%
S100A4 mRNA, mean % (HCT116-S100A4, 1 μM, 24 h, solvent control 717.0%, not statistically significant): 612.3%
S100A4 mRNA, mean % of solvent-treated control (HCT116-vector, 1 μM, 24 h): 57.8%
S100A4 mRNA, mean difference control vs niclosamide (HCT116-vector, 1 μM, 24 h): 42.0%
S100A4 mRNA, mean difference control vs niclosamide (LS174T, 1 μM, 24 h): 51.9%
S100A4 mRNA, mean % (LS174T, 1 μM, 24 h, solvent control 65.5%): 13.5%
S100A4 mRNA, mean difference control vs niclosamide (SW480, 1 μM, 24 h): 35.0%
S100A4 mRNA, mean % (SW480, 1 μM, 24 h, solvent control 41.0%): 6.0%
S100A4 mRNA, mean difference control vs niclosamide (SW620, 1 μM, 24 h): 68.8%
S100A4 mRNA, mean % (SW620, 1 μM, 24 h, solvent control 100.0%): 31.2%

Source: patent publication US11331290B2, “Niclosamide for the treatment of cancer metastasis” (Max-Delbrück-Centrum für Molekulare Medizin in der …, priority 2011, dated 2022)
